Reference: patent publication US6586460B1, “Heteroarotinoids containing urea or thiourea linker” (The Board of Regents for Oklahoma State University, priority 2001, dated 2003)

Key:
OVCAR-3 = test: Growth inhibition assay (SRB); format: cell-based, human; conditions: 10 μM, three-day treatment, Table I
How it was run: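 Cells plated at 2000-4000/well, then treated next day with compound at final 1, 2, 3, 4, 5, 7 and 10 μM for 3 days. Density by TCA fixation and sulforhodamine B staining with OD read-out, in triplicate. Percent growth inhibition = (1 − treated OD/DMSO-control OD) × 100.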

OVCAR-3 cells = test: In vivo tumor xenograph; design: species or system athymic nu/nu mice; conditions: 10 mg/kg/day p.o.; for tumor growth (average tumor volume, FIG. 1): 5 days/week, beginning 35 days after implantation; for sizes of the tumors compared with control group treated with sesame oil alone: after 15 days of treatment, t-test P<0.05
Description: Thirty female athymic nu/nu mice (Charles Rivers Laboratories, Wilmington, Mass.) were housed in a laminar flow room under sterile conditions at 83-85° F. The mice were quarantined for one week prior to the beginning of the study and were allowed access to autoclaved food (Purina 5001 mouse/rat sterilized diet, St. Louis, Mo.) and water ad libitum. Then OVCAR-3 cells in log phase growth were harvested by trypsinization, resuspended in RPMI culture medium, and centrifuged at 3000 rpm for 10 min. The pellets were then resuspended in RPMI culture medium at a concentration of 7×10^6 cells/mL before implantation into mice. Animals were injected with 3.5×10^6 cells into right scapular region with a 24-gauge needle/1 mL tuberculin syringe (Becton Dickinson, Rutherford, N.J.). Twenty four hours after tumor implantation, animals were randomized into four treatment groups of 5 animals each. Retinoids were administered daily p.o. beginning 35 days after tumor implantation with a 20-gauge intragastric feeding tube (Popper & Sons, New Hyde Park, N.Y.), 5 days/week, at doses of 10 mg/kg/day in 0.1 mL of super refined sesame oil (Corda, Inc., Parisppany, N.J.). Tumors were measured with calipers weekly, and tumor volumes were calculated using the formula: volume=length×width×heigth. Animal weights and clinical signs of overall health status and cutaneous toxicities were recorded weekly. Agents 11 and 13 were evaluated against the 4-HPR standard. FIG. 1 illustrates the overall changes in tumor volumes found in the mice in these experiments. […] The animals were monitored daily for signs of toxicity, such as skin eczema and bone fractures, but none were observed. This is added evidence that these heteroarotinoids are strong candidates for cancer chemotherapy.

[1] = Liver toxicity (plasma ALT activity, liver sections); format: in vivo; conditions: 10 mg/kg/day p.o.; for liver toxicity (ALT activities, liver sections assessed by pathologist): mice
From the text: Toxic compounds can induce livers to release enzymes called serum transaminases, such as alanine aminotransferase (ALT). The assay for ALT is the most universally accepted clinical laboratory marker used to evaluate hepatic toxicity induced by pharmaceuticals [See “Serum Transferase Elevations as Indicators or Hepatic Injury Following the Administration of Drugs”, Reg. Tox. Pharm., volume 27, 1998, pp 119-130, by D. E. Amacher]. At the end of the treatment period, blood was drawn from each animal. Plasma was separated by centrifugation and stored at −70° C. The activity of ALT was determined in aliquots of plasma by standard spectrophotometric enzymatic techniques which were based upon the reduction of pyruvate by lactate dehydrogenase [See “Aged Mice are Resistant to the Hepatotoxic Effects of Endotoxin and Galactosamine” in Exp. Mol. Pathology, volume 59, 1993, pp 27-37]. The method measures the disappearance of NADH from time of incubation at 37° C. The activities have been expressed in μm/Liter/min (Table VI). Two different amounts of plasma were utilized in each assay to assure the measurement of the maximum rate.
There were no statistically significant differences between the ALT activities in the different treatment groups (Table VI, t-test: P>0.05). All numbers were in the normal range (63 to 307 μm/Liter/Min) of ALT values for the species of mouse utilized. All liver sections were assessed by an experienced pathologist in a blinded manner. The degree of necrosis was very mild in all animals.

[2] = Monitoring of xenograph mice for signs of toxicity; format: in vivo; conditions: 10 mg/kg/day (MTD for t-RA)

Structure (SMILES)	Percentage growth inhibition, OVCAR-3 (Ovarian HPV− Mut p53) (OVCAR-3) [%]	tumor growth (average tumor volume, FIG. 1) (OVCAR-3 cells)	sizes of the tumors compared with control group treated with sesame oil alone (OVCAR-3 cells)	liver toxicity (ALT activities, liver sections assessed by pathologist) [1]	ALT ACTIVITY ([1]; plasma of mice at end of treatment period) [μm/Liter/Min]	toxicity to the skin, bones, or liver [2]
CC1(C)CC(C)(C)c2cc(NC(=S)Nc3ccc([N+](=O)[O-])cc3)ccc2S1 [heteroarotinoid 11]	94	inhibited tumor growth	significantly smaller	do not appear to induce significant liver toxicity	118.5 ± 153.4	did not cause toxicity
CCOC(=O)c1ccc(NC(=O)Nc2ccc3c(c2)C(C)(C)CC(C)(C)S3)cc1 [heteroarotinoid 13]	77	inhibited tumor growth	significantly smaller	do not appear to induce significant liver toxicity	–	did not cause toxicity
